According to PMC4883822, “High-Efficiency Capture of Drug Resistant-Influenza Virus by Live Imaging of Sialidase Activity” (PLoS ONE, 2016):

Biological target: T1, sialidase (neuraminidase, NA) of oseltamivir-sensitive 838 (Influenza A virus (A/Lima/070674913/2013(H1N1)), UniProt W8DXJ8)
T1 construct: full-length viral NA on whole virus grown in MDCK cells (or on infected MDCK cells); natural 275H
Experiment: live-focus fluorescence imaging of sialidase activity, qualitative
Format: cell-based
Conditions: substrate BTP3-Neu5Ac, 37 °C, 1 h, infected MDCK cells

Compound: CCC(CC)[C@H](NC(C)=O)[C@@H]1[C@H](O)[C@@H](C(=O)O)C[C@H]1N=C(N)N [peramivir]
- inhibition at 10-1000 nM (qualitative): adding BTP3-Neu5Ac with clinical use-approved NAIs (oseltamivir, zanamivir, peramivir, and laninamivir)
